According to ChEMBL document CHEMBL3885881, “DrugMatrix”:

Organism: Rattus norvegicus
Assay: DrugMatrix - Regimen: Daily Repeat
Type: toxicity, organism-based, Sprague-Dawley
Design: regimen Daily Repeat, gender Male, age 6-8 weeks
Details: in vivo, po, route oral GAVAGE, […]; for ABSOLUTE BASOPHIL / ABSOLUTE EOSINOPHIL / ABSOLUTE LYMPHOCYTE / ABSOLUTE MONOCYTE / ABSOLUTE SEGMENTED NEUTROPHIL / BASOPHIL / EOSINOPHIL / ERYTHROCYTE COUNT / HEMATOCRIT / HEMOGLOBIN / LEUKOCYTE COUNT / LYMPHOCYTE / MEAN CORPUSCULAR HEMOGLOBIN / MEAN CORPUSCULAR HEMOGLOBIN CONCENTRATION / MEAN CORPUSCULAR VOLUME / MONOCYTE / NEUTROPHIL / NUCLEATED RED BLOOD CELLS / PLATELET COUNT: tissue Blood; for ALANINE AMINOTRANSFERASE / ALBUMIN / ALKALINE PHOSPHATASE / ASPARTATE AMINOTRANSFERASE / BLOOD UREA NITROGEN / CARBON DIOXIDE / CHLORIDE / CHOLESTEROL / CREATINE PHOSPHOKINASE / CREATININE / GLUCOSE / LACTATE DEHYDROGENASE / LIPASE / PHOSPHORUS / POTASSIUM / SODIUM / TOTAL BILIRUBIN / TOTAL PROTEIN / URIC ACID: tissue Plasma
[1] = 0.05 mg/kg, 120 h, dose level Low, time 5 day
[2] = 7 mg/kg, 72 h, dose level High, time 3 day
[3] = 7 mg/kg, 120 h, dose level High, time 5 day

COCc1c(C(C)C)nc(C(C)C)c(/C=C/[C@@H](O)C[C@@H](O)CC(=O)O)c1-c1ccc(F)cc1 [CERIVASTATIN]
ABSOLUTE BASOPHIL [1]: 0 CELLS/uL | ABSOLUTE EOSINOPHIL [1]: 39 CELLS/uL | ABSOLUTE LYMPHOCYTE [1]: 10187.67 CELLS/uL | ABSOLUTE MONOCYTE [1]: 164.67 CELLS/uL | ABSOLUTE SEGMENTED NEUTROPHIL [1]: 875.33 CELLS/uL | BASOPHIL [1]: 0% | EOSINOPHIL [1]: 0.33% | ERYTHROCYTE COUNT [1]: 5.9 x10E6/uL | HEMATOCRIT [1]: 36.4% | HEMOGLOBIN [1]: 13.87 G/DL | LEUKOCYTE COUNT [1]: 11.27 x10E3/uL | LYMPHOCYTE [1]: 90.33% | MEAN CORPUSCULAR HEMOGLOBIN [1]: 23.53 pg | MEAN CORPUSCULAR HEMOGLOBIN CONCENTRATION [1]: 38.1 G/DL | MEAN CORPUSCULAR VOLUME [1]: 61.73 fL | MONOCYTE [1]: 1.33% | NEUTROPHIL [1]: 8% | NUCLEATED RED BLOOD CELLS [1]: 0 /100WBC | PLATELET COUNT [1]: 1545 x10E3/uL | ALANINE AMINOTRANSFERASE [1]: 66.33 u/L | ALBUMIN [1]: 4.1 G/DL | ALKALINE PHOSPHATASE [1]: 440.67 u/L | ASPARTATE AMINOTRANSFERASE [1]: 90 u/L | BLOOD UREA NITROGEN [1]: 14.67 mg/dL | CARBON DIOXIDE [1]: 32 mmol/L | CHLORIDE [1]: 101 MEQ/L | CHOLESTEROL [1]: 63.67 mg/dL | CREATINE PHOSPHOKINASE [1]: 453 u/L | CREATININE [1]: 0.19 mg/dL | GLUCOSE [1]: 143.33 mg/dL | LACTATE DEHYDROGENASE [1]: 112.33 u/L | LIPASE [1]: 11.33 u/L | PHOSPHORUS [1]: 10.8 mg/dL | POTASSIUM [1]: 6.11 MEQ/L | SODIUM [1]: 144.4 MEQ/L | TOTAL BILIRUBIN [1]: 0.17 mg/dL | TOTAL PROTEIN [1]: 5.87 G/DL | URIC ACID [1]: 1.37 mg/dL | ABSOLUTE BASOPHIL [2]: 0 CELLS/uL | ABSOLUTE EOSINOPHIL [2]: 0 CELLS/uL | ABSOLUTE LYMPHOCYTE [2]: 7320 CELLS/uL | ABSOLUTE MONOCYTE [2]: 110 CELLS/uL | ABSOLUTE SEGMENTED NEUTROPHIL [2]: 1470 CELLS/uL | BASOPHIL [2]: 0% | EOSINOPHIL [2]: 0% | ERYTHROCYTE COUNT [2]: 6.07 x10E6/uL | HEMATOCRIT [2]: 37.7% | HEMOGLOBIN [2]: 14.3 G/DL | LEUKOCYTE COUNT [2]: 8.9 x10E3/uL | LYMPHOCYTE [2]: 81.67% | MEAN CORPUSCULAR HEMOGLOBIN [2]: 23.6 pg | MEAN CORPUSCULAR HEMOGLOBIN CONCENTRATION [2]: 37.93 G/DL | MEAN CORPUSCULAR VOLUME [2]: 62.2 fL | MONOCYTE [2]: 1.33% | NEUTROPHIL [2]: 17% | NUCLEATED RED BLOOD CELLS [2]: 0 /100WBC | PLATELET COUNT [2]: 1276.33 x10E3/uL | ALANINE AMINOTRANSFERASE [2]: 401.33 u/L | ALBUMIN [2]: 4.23 G/DL | ALKALINE PHOSPHATASE [2]: 440.67 u/L | ASPARTATE AMINOTRANSFERASE [2]: 730.67 u/L | BLOOD UREA NITROGEN [2]: 14.33 mg/dL | CARBON DIOXIDE [2]: 34.67 mmol/L | CHLORIDE [2]: 99.33 MEQ/L | CHOLESTEROL [2]: 65.33 mg/dL | CREATINE PHOSPHOKINASE [2]: 536.67 u/L | CREATININE [2]: 0.21 mg/dL | GLUCOSE [2]: 138.33 mg/dL | LACTATE DEHYDROGENASE [2]: 823 u/L | LIPASE [2]: 11.33 u/L | PHOSPHORUS [2]: 10.17 mg/dL | POTASSIUM [2]: 6.19 MEQ/L | SODIUM [2]: 145.1 MEQ/L | TOTAL BILIRUBIN [2]: 0.13 mg/dL | TOTAL PROTEIN [2]: 5.9 G/DL | URIC ACID [2]: 1.17 mg/dL | ABSOLUTE BASOPHIL [3]: 0 CELLS/uL | ABSOLUTE EOSINOPHIL [3]: 0 CELLS/uL | ABSOLUTE LYMPHOCYTE [3]: 5700.67 CELLS/uL | ABSOLUTE MONOCYTE [3]: 483.33 CELLS/uL | ABSOLUTE SEGMENTED NEUTROPHIL [3]: 1949.33 CELLS/uL | BASOPHIL [3]: 0% | EOSINOPHIL [3]: 0% | ERYTHROCYTE COUNT [3]: 6.32 x10E6/uL | HEMATOCRIT [3]: 41% | HEMOGLOBIN [3]: 15.23 G/DL | LEUKOCYTE COUNT [3]: 8.13 x10E3/uL | LYMPHOCYTE [3]: 68.33% | MEAN CORPUSCULAR HEMOGLOBIN [3]: 24.1 pg | MEAN CORPUSCULAR HEMOGLOBIN CONCENTRATION [3]: 37.17 G/DL | MEAN CORPUSCULAR VOLUME [3]: 64.93 fL | MONOCYTE [3]: 5.67% | NEUTROPHIL [3]: 26% | NUCLEATED RED BLOOD CELLS [3]: 0 /100WBC | PLATELET COUNT [3]: 1312.67 x10E3/uL | ALANINE AMINOTRANSFERASE [3]: 247.33 u/L | ALBUMIN [3]: 3.9 G/DL | ALKALINE PHOSPHATASE [3]: 548.33 u/L | ASPARTATE AMINOTRANSFERASE [3]: 624.67 u/L | BLOOD UREA NITROGEN [3]: 19 mg/dL | CARBON DIOXIDE [3]: 35.67 mmol/L | CHLORIDE [3]: 93 MEQ/L | CHOLESTEROL [3]: 85 mg/dL | CREATINE PHOSPHOKINASE [3]: 915.67 u/L | CREATININE [3]: 0.27 mg/dL | GLUCOSE [3]: 124.33 mg/dL | LACTATE DEHYDROGENASE [3]: 295 u/L | LIPASE [3]: 13 u/L | PHOSPHORUS [3]: 8 mg/dL | POTASSIUM [3]: 5.51 MEQ/L | SODIUM [3]: 142.73 MEQ/L | TOTAL BILIRUBIN [3]: 0.13 mg/dL | TOTAL PROTEIN [3]: 6.1 G/DL | URIC ACID [3]: 0.87 mg/dL
